ChEMBL document CHEMBL1201862, “PubChem BioAssay data set” (2004)
Calls of active or inactive are those of the source.

What was measured:
[1] = target: Potassium channel subfamily K member 3 (Homo sapiens, UniProt O14649); test: TASK1 (KCNK3) potassium channel inhibitors, SAR follow-up, CHO cells, FluxOR thallium flux (AID 652212); type: functional
Escherichia coli = test: microbe, parasite or virus in culture
[2] = target: 1-phosphatidylinositol 4,5-bisphosphate phosphodiesterase beta-3 (Homo sapiens, UniProt Q01970); test: Fluorescence-based biochemical high throughput dose response assay to identify inhibitors of phospholipase C isozymes (PLC-B3).
[3] = target: 1-phosphatidylinositol 4,5-bisphosphate phosphodiesterase gamma-1 (Homo sapiens, UniProt P19174); test: Counterscreen for inhibitors of phospholipase C isozymes (PLC-B3): Fluorescence-based biochemical high throughput dose response assay to identify inhibitors of phospholipase C isozymes (PLC-gamma1).
[4] = LGR2 antagonists, dose response, cell-based, HEK293, CRE-luciferase reporter, cherry pick, set 2 (AID 743343); type: functional;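 note: transfected cells were stimulated with diluted bursicon conditioned medium after compound addition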
[5] = reduction of Shn3 3'UTR firefly luciferase signal, dose response, Schnurri-3 inhibitor project, cell-based, Clone20 osteoblasts, cherry-pick, set 2 (AID 720490); type: functional;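 note: actives lower the luminescence signal as inhibitors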
[6] = Shn3 3'UTR reporter inhibitors, dose response, cell-based, Clone20 osteoblasts, firefly luciferase, cherry-picked (AID 624132); type: functional;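 note: firefly luciferase luminescence from reporter carrying the Shn3 3'UTR in osteoblasts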
[7] = MC4R antagonists, dose response, counter-screen for LGR2 antagonist project, cell-based, plate reader, cherry pick (AID 743444); type: functional;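 note: transfected HEK 293 cells stimulated with alpha-MSH peptide; potency of inhibitors of the alpha-MSH evoked signal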
[8] = HEK293 cell cytotoxicity, dose response, cytotoxicity control, plate reader, cherry-picked samples (AID 743446); type: functional, cell-based
[9] = control 3'UTR Renilla luciferase suppression, dose response, counter-screen for Shn3 inhibitor project, cell-based, Clone20-Shn3RL, cherry-picked (AID 624133); type: functional
[10] = HepG2 cell cytotoxicity, dose response, cytotoxicity control, plate reader, cherry-pick, antagonist series (AID 743416); type: functional, cell-based
[11] = HepG2 cell cytotoxicity, dose response, cytotoxicity control for Shn3 inhibitor project, CellTiter-Glo, cherry-picked (AID 624134); type: functional, cell-based
Caspase-6 = Caspase-6 (Homo sapiens, UniProt P55212); test: human caspase-6 inhibitors, dose response, biochemical, VEID-R110 fluorescence, cherry-pick (AID 720632)
[12] = IOSE-T80 ovarian epithelial cell cytotoxicity, dose response, cytotoxicity control for PAX8 inhibitor project, plate reader, dry powder samples (AID 743045); type: functional, cell-based
[13] = cytotoxicity in OVCAR8 ovarian cancer cells, dose response, PAX8 project, cell-based, plate reader, dry powder samples (AID 743197); type: functional; details: OVCAR-8
[14] = NIH:OVCAR-3 ovarian cancer cell cytotoxicity, dose response, PAX8 inhibitor project, plate reader, dry powder samples (AID 743044); type: functional, cell-based
Paired box protein Pax-8 = Paired box protein Pax-8 (Homo sapiens, UniProt Q06710); test: inhibitors of PAX8-driven TPO luciferase reporter, dose response, RMG-I cells, cherry-pick (AID 687027); type: functional, cell-based;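 note: luciferase reporter driven by Pax8 target thyroperoxidase promoter measured by SteadyGlo luminescence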
Sequence of Paired box protein Pax-8 (Q06710 whole entry): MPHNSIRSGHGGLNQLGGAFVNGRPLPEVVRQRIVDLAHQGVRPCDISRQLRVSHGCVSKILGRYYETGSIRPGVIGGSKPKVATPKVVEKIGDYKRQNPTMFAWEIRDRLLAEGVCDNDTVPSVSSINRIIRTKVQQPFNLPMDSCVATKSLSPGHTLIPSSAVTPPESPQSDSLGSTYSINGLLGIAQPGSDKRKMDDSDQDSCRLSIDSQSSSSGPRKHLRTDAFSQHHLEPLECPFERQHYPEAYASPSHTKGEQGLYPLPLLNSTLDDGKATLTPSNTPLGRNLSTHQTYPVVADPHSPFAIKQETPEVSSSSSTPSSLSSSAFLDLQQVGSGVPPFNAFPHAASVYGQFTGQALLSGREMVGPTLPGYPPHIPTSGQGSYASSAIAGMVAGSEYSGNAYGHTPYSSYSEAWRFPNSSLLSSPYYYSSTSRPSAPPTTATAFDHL

Sequence of Caspase-6 (P55212 24-179 limits assumed): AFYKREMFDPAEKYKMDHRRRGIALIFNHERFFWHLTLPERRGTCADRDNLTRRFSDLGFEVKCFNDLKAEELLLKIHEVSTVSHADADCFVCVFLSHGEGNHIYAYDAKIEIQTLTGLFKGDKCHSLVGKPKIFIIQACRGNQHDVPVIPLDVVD
Sequence of Caspase-6 (P55212 194-293 limits assumed): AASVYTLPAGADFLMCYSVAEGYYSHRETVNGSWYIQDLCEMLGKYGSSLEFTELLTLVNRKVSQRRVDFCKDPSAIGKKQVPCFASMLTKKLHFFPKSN
Sequence of 1-phosphatidylinositol 4,5-bisphosphate phosphodiesterase gamma-1 (P19174 whole entry): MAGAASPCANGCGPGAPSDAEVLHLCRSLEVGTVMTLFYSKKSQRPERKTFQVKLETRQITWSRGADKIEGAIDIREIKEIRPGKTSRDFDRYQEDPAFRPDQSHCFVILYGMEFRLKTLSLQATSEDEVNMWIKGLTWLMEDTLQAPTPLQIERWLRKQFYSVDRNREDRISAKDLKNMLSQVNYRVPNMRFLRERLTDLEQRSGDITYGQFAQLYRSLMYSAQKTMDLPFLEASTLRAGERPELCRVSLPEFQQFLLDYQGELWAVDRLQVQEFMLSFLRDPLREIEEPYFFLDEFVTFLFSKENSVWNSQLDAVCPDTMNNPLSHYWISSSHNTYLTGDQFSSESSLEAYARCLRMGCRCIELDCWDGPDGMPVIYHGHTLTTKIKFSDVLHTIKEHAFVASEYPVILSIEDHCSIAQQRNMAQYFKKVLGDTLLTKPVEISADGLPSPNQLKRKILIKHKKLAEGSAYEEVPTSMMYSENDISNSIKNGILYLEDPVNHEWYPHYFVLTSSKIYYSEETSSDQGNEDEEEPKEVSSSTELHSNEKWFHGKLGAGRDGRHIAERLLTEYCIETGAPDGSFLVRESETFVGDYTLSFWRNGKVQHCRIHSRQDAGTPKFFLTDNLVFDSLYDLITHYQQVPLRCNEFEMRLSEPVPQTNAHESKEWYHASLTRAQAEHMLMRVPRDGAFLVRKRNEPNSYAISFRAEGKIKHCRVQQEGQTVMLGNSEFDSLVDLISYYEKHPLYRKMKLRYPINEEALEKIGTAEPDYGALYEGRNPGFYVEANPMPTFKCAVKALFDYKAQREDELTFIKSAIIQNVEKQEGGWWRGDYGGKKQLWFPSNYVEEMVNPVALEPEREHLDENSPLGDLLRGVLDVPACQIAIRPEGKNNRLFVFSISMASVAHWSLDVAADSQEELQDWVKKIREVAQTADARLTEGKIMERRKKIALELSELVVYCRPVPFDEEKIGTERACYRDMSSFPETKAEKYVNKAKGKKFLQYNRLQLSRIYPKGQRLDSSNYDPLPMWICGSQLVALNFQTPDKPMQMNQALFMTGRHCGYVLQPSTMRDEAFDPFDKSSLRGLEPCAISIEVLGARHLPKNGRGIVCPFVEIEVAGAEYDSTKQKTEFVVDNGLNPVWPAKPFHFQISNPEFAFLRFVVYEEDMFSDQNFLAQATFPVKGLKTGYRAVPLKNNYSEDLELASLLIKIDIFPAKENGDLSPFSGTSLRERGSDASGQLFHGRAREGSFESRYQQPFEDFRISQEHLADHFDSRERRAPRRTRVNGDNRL
Sequence of Potassium channel subfamily K member 3 (O14649 whole entry): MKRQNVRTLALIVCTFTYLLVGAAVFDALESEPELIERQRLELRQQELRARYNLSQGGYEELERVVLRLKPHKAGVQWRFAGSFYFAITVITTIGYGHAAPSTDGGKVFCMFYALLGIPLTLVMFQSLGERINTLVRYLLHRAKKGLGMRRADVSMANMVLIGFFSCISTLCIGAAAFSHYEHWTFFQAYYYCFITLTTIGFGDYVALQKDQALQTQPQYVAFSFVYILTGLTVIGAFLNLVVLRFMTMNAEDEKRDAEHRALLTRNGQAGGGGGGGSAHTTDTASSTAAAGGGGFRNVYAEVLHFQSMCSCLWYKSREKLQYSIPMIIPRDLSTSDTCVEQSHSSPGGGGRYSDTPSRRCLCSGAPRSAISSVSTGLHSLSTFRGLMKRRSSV
Sequence of 1-phosphatidylinositol 4,5-bisphosphate phosphodiesterase beta-3 (Q01970 whole entry): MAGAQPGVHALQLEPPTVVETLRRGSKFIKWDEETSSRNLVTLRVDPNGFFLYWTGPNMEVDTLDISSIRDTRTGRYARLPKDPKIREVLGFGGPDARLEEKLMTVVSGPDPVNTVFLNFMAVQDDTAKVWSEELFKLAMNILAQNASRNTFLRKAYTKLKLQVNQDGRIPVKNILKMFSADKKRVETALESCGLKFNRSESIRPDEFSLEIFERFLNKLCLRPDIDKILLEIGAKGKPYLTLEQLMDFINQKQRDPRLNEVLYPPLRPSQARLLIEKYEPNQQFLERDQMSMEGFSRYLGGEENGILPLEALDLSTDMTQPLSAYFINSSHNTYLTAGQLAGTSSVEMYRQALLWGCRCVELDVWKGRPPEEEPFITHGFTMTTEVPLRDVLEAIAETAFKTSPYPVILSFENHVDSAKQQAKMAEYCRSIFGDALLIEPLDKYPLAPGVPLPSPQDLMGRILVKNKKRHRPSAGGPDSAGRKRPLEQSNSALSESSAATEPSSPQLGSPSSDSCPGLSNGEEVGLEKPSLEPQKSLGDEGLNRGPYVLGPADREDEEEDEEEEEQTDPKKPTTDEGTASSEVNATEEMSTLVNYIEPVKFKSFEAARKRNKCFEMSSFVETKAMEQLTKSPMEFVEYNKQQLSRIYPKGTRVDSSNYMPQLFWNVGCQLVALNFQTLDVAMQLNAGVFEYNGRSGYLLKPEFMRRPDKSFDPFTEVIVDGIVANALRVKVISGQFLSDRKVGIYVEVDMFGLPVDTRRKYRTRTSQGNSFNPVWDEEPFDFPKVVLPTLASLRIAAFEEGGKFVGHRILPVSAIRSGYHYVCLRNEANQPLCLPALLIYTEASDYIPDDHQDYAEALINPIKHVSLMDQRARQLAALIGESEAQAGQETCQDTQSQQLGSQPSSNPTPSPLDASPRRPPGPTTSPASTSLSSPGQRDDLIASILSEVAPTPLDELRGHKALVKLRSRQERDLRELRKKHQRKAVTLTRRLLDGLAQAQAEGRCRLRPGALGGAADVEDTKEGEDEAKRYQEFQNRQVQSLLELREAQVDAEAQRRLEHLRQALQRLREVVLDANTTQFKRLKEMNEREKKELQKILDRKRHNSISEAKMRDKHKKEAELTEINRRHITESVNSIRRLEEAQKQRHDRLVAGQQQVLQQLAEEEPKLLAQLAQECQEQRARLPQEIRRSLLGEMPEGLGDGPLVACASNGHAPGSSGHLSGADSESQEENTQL

With `O=C(Nc1cccc(NC(=O)c2ccco2)c1)c1ccccc1` the IC50 [1] was 0.036 µM (active) and the AC50 (Escherichia coli) was 25 µM (active).

For `CC(C)c1ccccc1NC(=O)Nc1ccc2c(c1)OCO2`, the IC50 [2] was > 123 µM (inactive) and the IC50 [3] was > 123 µM (inactive).

With `COc1cc(NC(=O)c2cccc3c(-c4cccnc4)coc23)cc(OC)c1OC` the AC50 [4] was 11.2 µM (active), the AC50 [5] was 5.23 µM (active) and the AC50 [6] was 0.978 µM (active). The AC50 [7] was 11.2 µM (active), the AC50 [8] was 28.6 µM (active) and the AC50 [9] was 11.5 µM (active). For the same compound, the AC50 [10] was > 52 µM (inactive) and the AC50 [11] was 57.5 µM (active).

In the case of `NNC(=O)CNC(=O)Nc1nnc(S)s1`, the AC50 (Caspase-6) is reported as 6.63 µM (active).

For `C[C@@H]1CCCCO[C@H](CN(C)Cc2ccc(C(=O)Nc3ccccc3N)cc2)[C@@H](C)CN([C@@H](C)CO)C(=O)c2cc(NS(=O)(=O)c3ccc(Cl)cc3)ccc2O1`, the AC50 [12] was 46.9 µM (active), the AC50 [13] was 41.6 µM (active) and the AC50 [14] was 7.38 µM (active). The AC50 (Paired box protein Pax-8) was 11.7 µM (active).

For `COc1ccc(S(=O)(=O)Nc2ccc3c(c2)C(=O)N([C@@H](C)CO)C[C@@H](C)[C@@H](CN(C)Cc2ccc(C(F)(F)F)cc2)OCCCC[C@@H](C)O3)cc1`, the AC50 [12] was 24 µM (active), the AC50 [13] was 22.5 µM (active) and the AC50 [14] was 23.1 µM (active). For the same compound, the AC50 (Paired box protein Pax-8) was 6.1 µM (active).
